Data: patent US20020077352A1, “N-methyl-D-aspartate receptor antagonists” (priority 2000, published 2002)
Like-named read-outs stand apart in the source and are kept apart here.

Assays:
[1] = molecular target: T1, recombinant NMDARs composed of NR1 and NR2D subunits (Homo sapiens, UniProt O15399+Q05586); experiment: NMDA-induced current in transiently transfected HEK293 cells expressing recombinant NR1/NR2D NMDARs; format: cell-based; settings: for block of the NMDA-induced current, NR1/NR2D: 100 nM, co-application of NMDA and glycine, absence of Mg2+
T1 construct: expressed in transfected cells; host or cells: HEK293, transiently transfected
Description: (§1) This example also compared the blocking efficacy of the tanshinones in transiently transfected human embryonic kidney (HEK) 293 cells expressing recombinant NMDARs containing either the NR1/NR2B or NR1/NR2D subunit combinations.

[2] = tested on: NMDARs; experiment: whole-cell patch clamp, NMDA-evoked currents in cultured mouse cortical neurons; format: cell-based
Description: NMDA (200 μM) alone, NMDA plus aqueous Salvia miltiorrhiza extract (100 μl in 10 ml Hanks solution) and NMDA plus 20 nM tanshinone IIA were applied for about 3 seconds (black bars) in the continuous presence of glycine (10 μM) and absence of Mg^2+.
The ordinate indicates the percent steady-state block of currents evoked by 200 μM NMDA plus 10 μM glycine in the absence of Mg^2+.
NMDA (100 μM) or increasing concentrations of NMDA (100 μM-1600 μM) plus tanshinone IIA (20 nM) were applied for about 3 seconds (indicated by the black bars) in the continuous presence of glycine (10 μM) and absence of Mg^2+,
I/V curves were constructed by subtracting the response in the presence of NMDA (200 μM) plus tanshinone from the control response during the application of NMDA alone for 2 seconds at membrane holding potentials from −60 mV to +60 mV. Data from 2 to 5 sweeps were averaged for each trace.
(§2) The whole-cell patch clamp technique was used in mouse cortical neuronal cultures in order to screen for NMDAR antagonists in Danshen, the root of Salvia milthiorriza Bunge. […] Tanshinones are plant-derived diterpenoid quinones.
The concentration dependence of the steady-state block of NMDA-induced currents was determined in order to obtain the dose/response curve of the NMDAR antagonist action of the tanshinones (FIG. 2). The data were fit according to a logistic equation and the concentration at which 50% of the NMDA-evoked response was blocked (IC50) was calculated from the equation.
Concentration-response curves were obtained in the presence of a saturating dose of tanshinone and increasing amounts of NMDA in cultured mouse cortical neurons (FIG. 3a).
The voltage-dependence of the inhibitory effects of the tanshinones was assessed by constructing current/voltage (I/V) plots in the presence or absence of the drugs (FIG. 3b).

[3] = tested on: central benzodiazepine receptors; settings: cited from earlier work
[4] = molecular target: T2, recombinant NMDARs composed of the NR1 and NR2B subunits (Homo sapiens, UniProt Q05586+Q13224); experiment: NMDA-induced current in transiently transfected HEK293 cells expressing recombinant NR1/NR2B NMDARs; format: cell-based
T2 construct: expressed in transfected cells; host or cells: HEK293, transiently transfected
Description: as §1

[5] = tested on: GABAA receptors; experiment: whole-cell patch clamp, currents activated by GABA in cultured cortical neurons; format: cell-based, mouse; settings: GABA 20 μM; n=3
Description: as §2
(§3) The present example examined whether tanshinones inhibited currents of AMPA and GABAA receptors evoked by AMPA or GABA, respectively.

[6] = tested on: AMPA receptors; experiment: whole-cell patch clamp, currents activated by AMPA in mouse cultured cortical neurons; format: cell-based; settings: AMPA 10 μM; 100 nM compound
Description: as §2, §3

[7] = 200 μM NMDA plus 10 μM glycine, absence of Mg2+; 95% confidence interval given in brackets; read-out: IC50, steady-state block of NMDA-induced currents
[8] = I/V plots, holding potentials −60 mV to +60 mV
[9] = purified tanshinones, patch-clamp assay (20 nM, FIG. 1d)

T1 sequence (O15399 28-1336, other chains not shown): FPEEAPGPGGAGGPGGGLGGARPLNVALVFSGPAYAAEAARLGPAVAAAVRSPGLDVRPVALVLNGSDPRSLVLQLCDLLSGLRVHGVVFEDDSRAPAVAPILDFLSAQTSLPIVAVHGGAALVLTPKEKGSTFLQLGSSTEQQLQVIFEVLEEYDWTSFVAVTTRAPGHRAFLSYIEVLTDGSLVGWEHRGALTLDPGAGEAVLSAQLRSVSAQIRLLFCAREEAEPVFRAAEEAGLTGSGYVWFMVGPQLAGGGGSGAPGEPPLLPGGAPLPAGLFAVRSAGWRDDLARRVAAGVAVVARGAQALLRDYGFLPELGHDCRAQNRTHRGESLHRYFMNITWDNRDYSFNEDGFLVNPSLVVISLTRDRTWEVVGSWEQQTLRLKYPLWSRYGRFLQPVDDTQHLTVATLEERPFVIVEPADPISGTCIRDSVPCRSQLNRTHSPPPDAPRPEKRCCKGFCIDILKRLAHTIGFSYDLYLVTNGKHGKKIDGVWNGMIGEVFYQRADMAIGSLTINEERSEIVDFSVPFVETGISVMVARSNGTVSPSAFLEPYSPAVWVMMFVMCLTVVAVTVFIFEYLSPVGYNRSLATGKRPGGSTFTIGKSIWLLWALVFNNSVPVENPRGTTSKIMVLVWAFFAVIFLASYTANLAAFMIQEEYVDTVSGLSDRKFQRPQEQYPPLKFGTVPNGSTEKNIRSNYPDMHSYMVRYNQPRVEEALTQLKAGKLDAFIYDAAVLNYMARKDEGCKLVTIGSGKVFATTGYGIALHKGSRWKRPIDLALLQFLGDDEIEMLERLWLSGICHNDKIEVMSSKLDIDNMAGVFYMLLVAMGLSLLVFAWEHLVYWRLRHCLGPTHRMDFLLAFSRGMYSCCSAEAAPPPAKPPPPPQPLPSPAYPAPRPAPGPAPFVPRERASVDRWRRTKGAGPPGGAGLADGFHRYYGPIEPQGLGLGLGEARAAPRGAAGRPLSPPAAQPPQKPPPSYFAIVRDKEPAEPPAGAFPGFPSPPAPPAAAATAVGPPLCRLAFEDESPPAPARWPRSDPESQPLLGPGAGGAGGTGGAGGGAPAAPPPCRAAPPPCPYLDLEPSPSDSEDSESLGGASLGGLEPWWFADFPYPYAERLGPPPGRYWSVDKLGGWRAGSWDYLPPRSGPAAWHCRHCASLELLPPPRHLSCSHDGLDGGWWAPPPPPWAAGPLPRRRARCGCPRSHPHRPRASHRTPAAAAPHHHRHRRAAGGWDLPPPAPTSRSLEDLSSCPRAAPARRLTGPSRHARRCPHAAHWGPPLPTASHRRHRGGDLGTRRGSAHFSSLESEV
T2 sequence (Q13224 27-1484, other chains not shown): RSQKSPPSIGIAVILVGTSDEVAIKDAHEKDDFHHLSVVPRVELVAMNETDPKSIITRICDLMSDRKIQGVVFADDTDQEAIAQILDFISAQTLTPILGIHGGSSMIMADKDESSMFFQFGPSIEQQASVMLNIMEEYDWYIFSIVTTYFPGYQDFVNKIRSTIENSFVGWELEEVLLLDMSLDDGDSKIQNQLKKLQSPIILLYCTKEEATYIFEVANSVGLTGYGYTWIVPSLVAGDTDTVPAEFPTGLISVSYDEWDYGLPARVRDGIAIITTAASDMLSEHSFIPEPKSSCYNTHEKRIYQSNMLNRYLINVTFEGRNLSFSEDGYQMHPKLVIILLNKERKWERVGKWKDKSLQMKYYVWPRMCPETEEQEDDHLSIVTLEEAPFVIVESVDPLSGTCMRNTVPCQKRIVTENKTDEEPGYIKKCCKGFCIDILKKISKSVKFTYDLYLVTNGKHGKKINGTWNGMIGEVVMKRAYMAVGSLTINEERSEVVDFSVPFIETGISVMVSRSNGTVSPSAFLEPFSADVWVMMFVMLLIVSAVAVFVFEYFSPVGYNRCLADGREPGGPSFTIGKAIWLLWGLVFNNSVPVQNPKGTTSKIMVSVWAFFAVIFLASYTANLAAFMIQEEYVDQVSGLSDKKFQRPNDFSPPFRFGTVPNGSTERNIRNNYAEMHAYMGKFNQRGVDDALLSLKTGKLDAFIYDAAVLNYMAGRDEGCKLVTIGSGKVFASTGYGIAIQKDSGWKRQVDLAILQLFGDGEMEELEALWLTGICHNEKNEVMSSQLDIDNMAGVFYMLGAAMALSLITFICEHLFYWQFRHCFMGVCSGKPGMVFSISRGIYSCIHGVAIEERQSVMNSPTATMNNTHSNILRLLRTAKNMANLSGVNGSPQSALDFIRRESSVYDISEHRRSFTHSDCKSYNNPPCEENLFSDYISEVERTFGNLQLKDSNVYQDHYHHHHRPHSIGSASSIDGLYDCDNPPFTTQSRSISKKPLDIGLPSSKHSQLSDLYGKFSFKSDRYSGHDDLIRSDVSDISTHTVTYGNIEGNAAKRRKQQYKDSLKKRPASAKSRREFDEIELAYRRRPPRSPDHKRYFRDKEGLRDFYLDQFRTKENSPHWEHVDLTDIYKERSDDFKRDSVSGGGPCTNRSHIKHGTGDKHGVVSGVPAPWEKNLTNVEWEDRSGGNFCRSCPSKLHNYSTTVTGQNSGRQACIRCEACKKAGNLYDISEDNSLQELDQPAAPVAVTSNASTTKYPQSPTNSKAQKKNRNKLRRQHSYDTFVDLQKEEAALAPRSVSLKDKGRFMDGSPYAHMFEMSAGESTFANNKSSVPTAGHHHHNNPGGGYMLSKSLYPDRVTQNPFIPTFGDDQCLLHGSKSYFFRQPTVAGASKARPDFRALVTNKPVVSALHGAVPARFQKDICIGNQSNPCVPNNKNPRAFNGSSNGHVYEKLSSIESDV

Row | SMILES | block of the NMDA-induced current, NR1/NR2D [1] [%] | IC50 ([2]; read-out: IC50, steady-state block of NMDA-induced currents; 200 μM NMDA plus 10 μM glycine, absence of Mg2+; 95% confidence interval given in brackets) [nM] | activity at central benzodiazepine receptors [3] | IC50 [2, 7] [nM] | voltage-dependence of inhibition of NMDA-induced whole-cell currents [2, 8] | inhibition of the NMDA-induced currents [2, 9] | voltage-dependence of inhibition, NR2B containing receptors [4] | voltage-dependence of inhibition, NR2D containing receptors ([1]; greatly reduced efficacy at positive potentials) | block of currents activated by GABA [5] [%] | mode of inhibition with respect to agonist NMDA and co-agonist glycine ([2]; fixed saturating dose of tanshinone (20 nM), increasing NMDA 100-1600 μM) | inhibition of currents activated by AMPA [6] [%]
1 | C[C@H]1COC2=C1C(=O)C(=O)c1c2ccc2c1CCCC2(C)C [cryptotanshinone] | 10±1 | 1.7 |  |  |  |  |  |  |  |  | 
2 | CC(C)C1=Cc2ccc3c(c2C(=O)C1=O)CCCC3(C)C [miltirone] | 11±2 |  | partial agonists | 2.1 | voltage-independent | strong, but readily reversible inhibition |  |  |  |  | 
3 | Cc1coc2c1C(=O)C(=O)c1c-2ccc2c1CCCC2(C)C [tanshinone IIA] | 61±11 |  |  | 3.4 | voltage-independent | strong, but readily reversible inhibition | voltage-independent | voltage-dependent | 10±3 | non-competitive inhibition | 6±3
4 | Cc1coc2c1C(=O)C(=O)c1c-2ccc2c1CCCC2(C)CO (stereo not drawn) [tanshinone IIB] | 52±11 |  |  | 1.1 | voltage-independent | strong, but readily reversible inhibition |  |  |  |  | 
5 | Cc1coc2c1C(=O)C(=O)c1c-2ccc2c(C)cccc12 [tanshinone I] | 4±1 |  |  | 3.7 | voltage-independent | strong, but readily reversible inhibition |  |  |  |  | 
